Patent US8802597B2, “Herbicidal pyrimidines” (E I du Pont de Nemours and Company, priority 2003, dated 2014)

Key:
Format in all cases: in vivo
[1] = system: barnyardgrass (ECHCG; Echinochloa crus-galli (L.) Beauv.); assay: Test H mixtures of compound 1 with diflufenzopyr; settings: foliage spray
Text: (§1) This test evaluated the effect of mixtures of compound 1 with diflufenzopyr on several plant species. Seeds of test plants consisting of large crabgrass (DIGSA, Digitaria sanguinalis (L.) Scop.), lambsquarters (CHEAL, Chenopodium album L.), redroot pigweed (AMARE, Amaranthus retroflexus L.), cocklebur (XANST, Xanthium strumarium L.), barnyardgrass (ECHCG; Echinochloa crus-galli (L.) Beauv.), corn (ZEAMD, Zea mays L. cv. ‘Pioneer 33G26’), scarlet (red) morningglory (IPOCO, Ipomoea coccinea L.), giant foxtail (SETFA, Setaria faberi Herrm.) and velvetleaf (ABUTH, Abutilon theophrasti Medik.) were planted in pots containing Redi-Earth® planting medium (Scotts Company, 14111 Scottslawn Road, Marysville, Ohio 43041) comprising spaghnum peat moss, vermiculite, wetting agent and starter nutrients. Seeds of small-seeded species were planted about 1 cm deep; larger seeds were planted about 2.5 cm deep. Plants were grown in a greenhouse using supplemental lighting to maintain a photoperiod of about 14 hours; daytime and nighttime temperatures were about 25-30° C. and 22-25° C., respectively. Balanced fertilizer was applied through the watering system. The plants were grown for 7 to 11 days so that at time of treatment the plants ranged in height from 2 to 18 cm (1- to 4-leaf stage). Treatments consisted of Compound 1 and diflufenzopyr alone and in combination, suspended or dissolved in an aqueous solvent comprising glycerin and Tween nonionic surfactant and applied as a foliage spray using a volume of 541 L/ha. Each treatment was replicated four times. […] Treated plants and controls were maintained in the greenhouse and watered as needed with care to not wet the foliage for the first 24 hours after treatment. The effects on the plants approximately 3 weeks after treatment were visually compared to untreated controls. Plant response ratings were calculated as the means of the four replicates, based on a scale of 0 to 100 where 0 is no effect and 100 is complete control. Colby's Equation was used to determine the herbicidal effects expected from the mixtures. Colby's Equation (Colby, S. R. “Calculating Synergistic and Antagonistic Responses of Herbicide Combinations,” Weeds, 15(1), pp 20-22 (1967)) calculates the expected additive effect of herbicidal mixtures, and for two active ingredients is of the form: Pa+b=Pa+Pb−(PaPb/100) wherein Pa+b is the percentage effect of the mixture expected from additive contribution of the individual components, • Pa is the observed percentage effect of the first active ingredient at the same use rate as in the mixture, and • Pb is the observed percentage effect of the second active ingredient at the same use rate as in the mixture.

[2] = system: scarlet (red) morningglory (IPOCO, Ipomoea coccinea L.); assay: Test H mixtures of compound 1 with diflufenzopyr; settings: foliage spray
Text: as §1

[3] = system: lambsquarters (CHEAL, Chenopodium album L.); assay: Test H mixtures of compound 1 with diflufenzopyr; settings: foliage spray
Text: as §1

[4] = system: large crabgrass (DIGSA, Digitaria sanguinalis (L.) Scop.); assay: Test H mixtures of compound 1 with diflufenzopyr; settings: foliage spray
Text: as §1

[5] = system: corn (ZEAMD, Zea mays L. cv. ‘Pioneer 33G26’); assay: Test H mixtures of compound 1 with diflufenzopyr; settings: foliage spray
Text: as §1

[6] = system: redroot pigweed (AMARE, Amaranthus retroflexus L.); assay: Test H mixtures of compound 1 with diflufenzopyr; settings: foliage spray
Text: as §1

[7] = system: giant foxtail (SETFA, Setaria faberi Herrm.); assay: Test H mixtures of compound 1 with diflufenzopyr; settings: foliage spray
Text: as §1

[8] = system: cocklebur (XANST, Xanthium strumarium L.); assay: Test H mixtures of compound 1 with diflufenzopyr; settings: foliage spray
Text: as §1

[9] = system: velvetleaf (ABUTH, Abutilon theophrasti Medik.); assay: Test H mixtures of compound 1 with diflufenzopyr; settings: foliage spray
Text: as §1

[10] = system: kochia (KCHSC; Kochia scoparia); assay: Test I mixtures of compound 9 with metsulfuron-methyl and chlorsulfuron-metsulfuron-methyl (5:1); settings: applied alone
Text: (§2) This test evaluated the effect of mixtures of compound 9 with metsulfuron-methyl and with a 5:1 by weight combination of chlorsulfuron and metsulfuron-methyl on several plant species. Seeds of test plants consisting of wheat (TRZAW; Triticum aestivum), wild buckwheat, (POLCO; Polygonum convolvulus), redroot pigweed (AMARE; Amaranthus retroflexus), wild mustard (SINAR; Sinapis arvensis), catchweed bedstraw (GALAP; Galium aparine), Russian thistle (SASKR; Salsola kali), common chickweed (STEME; Stellaria media), kochia (KCHSC; Kochia scoparia), and lambsquarters (CHEAL; Chenopodium album) were planted into a blend of loam soil and sand. Plants were grown in a greenhouse using supplemental lighting to maintain a photoperiod of about 14 hours; daytime and nighttime temperatures were about 23° C. and 16° C., respectively. Balanced fertilizer was applied through the watering system. The plants were grown for 10 to 23 days so that at time of treatment the plants ranged from 2- to 8-leaf stage. Treatments consisted of Compound 9, metsulfuron-methyl, and chlorsulfuron-metsulfuron-methyl (5:1) alone and in combination. The treatments were formulated in a non-phytotoxic solvent mixture which included a surfactant and applied as a foliage spray using a volume of 280-458 L/ha. Each treatment was replicated three times. […] Treated plants and controls were maintained in the greenhouse and watered as needed with care to not wet the foliage for the first 24 hours after treatment. The effects on the plants approximately 17 days after treatment were visually compared to untreated controls. Plant response ratings were calculated as the means of the three replicates, based on a scale of 0 to 100 where 0 is no effect and 100 is complete control. Colby's Equation was used to determine the herbicidal effects expected from the mixtures.

[11] = system: Russian thistle (SASKR; Salsola kali); assay: as above; settings: applied alone
Text: as §2

[12] = system: redroot pigweed (AMARE; Amaranthus retroflexus); assay: as above; settings: applied alone
Text: as §2

[13] = system: wild buckwheat (POLCO; Polygonum convolvulus); assay: as above; settings: applied alone
Text: as §2

[14] = system: common chickweed (STEME; Stellaria media); assay: as above; settings: applied alone
Text: as §2

[15] = system: catchweed bedstraw (GALAP; Galium aparine); assay: as above; settings: applied alone
Text: as §2

[16] = system: lambsquarters (CHEAL; Chenopodium album); assay: as above; settings: applied alone
Text: as §2

[17] = system: wheat (TRZAW; Triticum aestivum); assay: as above; settings: Metsulfuron-Methyl series, applied alone
Text: as §2

[18] = system: wild mustard (SINAR; Sinapis arvensis); assay: as above; settings: applied alone
Text: as §2

SMILES: C/C(=N\NC(=O)Nc1cc(F)cc(F)c1)c1ncccc1C(=O)O [Diflufenzopyr, diflufenzopyr, reference compound]
- Obsd. observed effect (0 to 100 scale) ([1]; Diflufenzopyr 12 g a.i./ha): 5
- Obsd. observed effect (0 to 100 scale) ([1]; Diflufenzopyr 25 g a.i./ha): 10
- Obsd. observed effect (0 to 100 scale) ([1]; Diflufenzopyr 50 g a.i./ha): 23
- Obsd. observed effect (0 to 100 scale) ([2]; Diflufenzopyr 12 g a.i./ha): 77
- Obsd. observed effect (0 to 100 scale) ([2]; Diflufenzopyr 25 g a.i./ha): 83
- Obsd. observed effect (0 to 100 scale) ([2]; Diflufenzopyr 50 g a.i./ha): 82
- Obsd. observed effect (0 to 100 scale) ([3]; Diflufenzopyr 12 g a.i./ha): 61
- Obsd. observed effect (0 to 100 scale) ([3]; Diflufenzopyr 25 g a.i./ha): 76
- Obsd. observed effect (0 to 100 scale) ([3]; Diflufenzopyr 50 g a.i./ha): 80
- Obsd. observed effect (0 to 100 scale) ([4]; Diflufenzopyr 12 g a.i./ha): 0
- Obsd. observed effect (0 to 100 scale) ([4]; Diflufenzopyr 25 g a.i./ha): 1
- Obsd. observed effect (0 to 100 scale) ([4]; Diflufenzopyr 50 g a.i./ha): 8
- Obsd. observed effect (0 to 100 scale) ([5]; Diflufenzopyr 12 g a.i./ha): 0
- Obsd. observed effect (0 to 100 scale) ([5]; Diflufenzopyr 25 g a.i./ha): 0
- Obsd. observed effect (0 to 100 scale) ([5]; Diflufenzopyr 50 g a.i./ha): 0
- Obsd. observed effect (0 to 100 scale) ([6]; Diflufenzopyr 12 g a.i./ha): 73
- Obsd. observed effect (0 to 100 scale) ([6]; Diflufenzopyr 25 g a.i./ha): 91
- Obsd. observed effect (0 to 100 scale) ([6]; Diflufenzopyr 50 g a.i./ha): 95
- Obsd. observed effect (0 to 100 scale) ([7]; Diflufenzopyr 12 g a.i./ha): 41
- Obsd. observed effect (0 to 100 scale) ([7]; Diflufenzopyr 25 g a.i./ha): 58
- Obsd. observed effect (0 to 100 scale) ([7]; Diflufenzopyr 50 g a.i./ha): 59
- Obsd. observed effect (0 to 100 scale) ([8]; Diflufenzopyr 12 g a.i./ha): 43
- Obsd. observed effect (0 to 100 scale) ([8]; Diflufenzopyr 25 g a.i./ha): 60
- Obsd. observed effect (0 to 100 scale) ([8]; Diflufenzopyr 50 g a.i./ha): 68
- Obsd. observed effect (0 to 100 scale) ([9]; Diflufenzopyr 12 g a.i./ha): 50
- Obsd. observed effect (0 to 100 scale) ([9]; Diflufenzopyr 25 g a.i./ha): 78
- Obsd. observed effect (0 to 100 scale) ([9]; Diflufenzopyr 50 g a.i./ha): 68

SMILES: COC(=O)c1ccccc1S(=O)(=O)NC(=O)Nc1nc(C)nc(OC)n1 [Metsulfuron-Methyl]
- KCHSC Obsd. (observed effect) ([10]; 4 g a.i./ha): 0
- KCHSC Obsd. (observed effect) ([10]; 8 g a.i./ha): 0
- SASKR Obsd. (observed effect) ([11]; 4 g a.i./ha): 0
- SASKR Obsd. (observed effect) ([11]; 8 g a.i./ha): 0
- AMARE Obsd. (observed effect) ([12]; 4 g a.i./ha): 0
- AMARE Obsd. (observed effect) ([12]; 8 g a.i./ha): 0
- POLCO Obsd. (observed effect) ([13]; 4 g a.i./ha): 0
- POLCO Obsd. (observed effect) ([13]; 8 g a.i./ha): 0
- STEME Obsd. (observed effect) ([14]; 4 g a.i./ha): 0
- STEME Obsd. (observed effect) ([14]; 8 g a.i./ha): 0
- GALAP Obsd. (observed effect) ([15]; 4 g a.i./ha): 0
- GALAP Obsd. (observed effect) ([15]; 8 g a.i./ha): 0
- CHEAL Obsd. (observed effect) ([16]; 4 g a.i./ha): 0
- CHEAL Obsd. (observed effect) ([16]; 8 g a.i./ha): 0
- TRZAW Obsd. (observed effect) ([17]; 4 g a.i./ha): 0
- TRZAW Obsd. (observed effect) ([17]; 8 g a.i./ha): 0
- SINAR Obsd. (observed effect) ([18]; 4 g a.i./ha): 0
- SINAR Obsd. (observed effect) ([18]; 8 g a.i./ha): 0
